The text below walks through data of ChEMBL document CHEMBL4340548, “Pyridone-containing phenalenone-based photosensitizer working both under light and in the dark for photodynamic therapy” (Bioorg Med Chem, 2019).

What is called CC50 is the concentration giving 50% cytotoxicity.

A short description of data set [1]: Induction of singlet oxygen generation in acetonitrile irradiated with blue light assessed as singlet oxygen quantum yield at 30 uM using ABDA by UV spectrophotometry. The data set is classed as functional.
Data set [2] has as its system HeLa. The data set is described as follows: Photodynamic cytotoxicity in human HeLa cells assessed as reduction in cell viability incubated in blue light for 5 mins every 1.5 hrs for 8 repeated cycles further incubation under dark for 24 hrs by MTT assay. The class given is functional. To be noted: light or radiation study. In general terms: Tetrazolium dyes change colour on reduction, which living cells bring about.

The nature of data set [3]: Induction of singlet oxygen generation in water irradiated with blue light assessed as singlet oxygen quantum yield at 30 uM using ABDA by UV spectrophotometry. The data set is classed as functional.
Data set [4] is described as follows: Photostability in acetonitrile assessed as decrease in absorbance of pyridone moiety at 50 uM irradiated with light for 2.5 hrs by UV spectrophotometry.
In data set [5] the test system is HeLa. Briefly: Induction of ROS generation in human HeLa cells irradiated with blue light at 1 uM incubated for 30 mins by DCFH-DA dye-based confocal microscopic analysis. The class given is functional, cell-based.
The test system of data set [6] is HeLa. Briefly: Induction of ROS generation in human HeLa cells under dark condition at 1 uM incubated for 30 mins at 37 degC by DCFH-DA dye-based confocal microscopic analysis. The data set is classed as cell-based. As to conditions: 0.5 h.
In data set [7] the test system is HeLa. Briefly: Induction of ROS generation in human HeLa cells irradiated with blue light at 1 uM incubated for 30 mins in presence of sodium azide by DCFH-DA dye-based confocal microscopic analysis. The data set is classed as functional, cell-based.
For data set [8], the system named is HeLa. Briefly: Induction of apoptosis in human HeLa cells at 1 uM incubated for 3 hrs irradiated with blue light by DAPI-Annexin V-PE staining based confocal microscopic analysis. The class given is functional, cell-based.
For data set [9], the system named is HeLa. Briefly: Induction of apoptosis in human HeLa cells at 1 uM incubated for 3 hrs irradiated with blue light in presence of sodium azide by DAPI-Annexin V-PE staining based confocal microscopic analysis. The class given is functional, cell-based.
The nature of data set [10]: Photostability in acetonitrile assessed as PPN-EPO formation at 50 uM irradiated with light for 2.5 hrs by UV spectrophotometry.
The nature of data set [11]: Photostability in acetonitrile assessed as singlet oxygen formation by measuring pyridone moiety band at 50 uM at 37 degC irradiated with light for 2.5 hrs by UV spectrophotometry.
Data set [12] can be described thus: Induction of singlet oxygen generation at 50 uM under irradiation incubated for 15 mins by 1H-NMR spectroscopy. The data set is classed as functional.
Data set [13] is described as follows: Induction of singlet oxygen generation at 50 uM under blue light irradiation at 60 degC by ABDA based singlet oxygen trap assay. The data set is classed as functional.
The nature of data set [14]: Induction of singlet oxygen generation at 50 uM under blue light irradiation at 25 degC by ABDA based singlet oxygen trap assay. The class given is functional.
The nature of data set [15]: Induction of singlet oxygen generation at 50 uM under dark condition at 37 degC by ABDA based singlet oxygen trap assay. The class given is functional.
The nature of data set [16]: Induction of singlet oxygen generation at 50 uM under irradiation at 20 degC for 5 mins and dark at 37 degC fro 30 mins for several cycles by ABDA based singlet oxygen trap assay. The class given is functional.

The structures appear in SMILES notation. Calls of active or inactive are those of the source. The calls are words filed in the database; no cut-off is given here.

On to `O=C1C(c2ccc(CN3C(=O)C4C=CC3OO4)cc2)=Cc2cccc3cccc1c23` (centres undefined), for which the values for the Activity in data set [1] and in data set [3] were 0.71 and 0.16, respectively. The CC50 with HeLa [2] was 71.5 nM.
For `O=C1C(c2ccc(Cn3ccccc3=O)cc2)=Cc2cccc3cccc1c23`, the Activity is 0.64 in data set [1], “Non-Toxic” in the data set on HeLa [6] and 0.12 in data set [3]. Besides, the Stability entry in data set [4] is reported as “Unstable”; in data set [10] it was “Unstable”; in data set [11], “Stable”. The result (with HeLa [5]; in the data set on HeLa [7]; with HeLa [8]; in [12]; in data set [13]; in data set [15]) was Active. Moreover, in [16], the result was Active. The result (in the data set on HeLa [9]; in [14]) was inactive. The CC50 with HeLa [2] was determined as 26.5 nM.
